Reference: US20080045419A1, “Screening Assay” (priority 2006, published 2008)
“Also recorded” adds a separate entry of the source.

Tested on: Rad17 self-interaction (Rad17/Rad17)
Test: DIPI assay (DNA-damage-induced increased protein interaction), two-hybrid colony growth on -His medium
Format: cell-based, Saccharomyces cerevisiae
Details: for Rad17 self-interaction response in DIPI assay (colony growth on -His medium): wild-type reporter strain CG1945, pCAD1-Rad17/pGBT9-Rad17, plate assay
Description: A reporter strain is co-transformed with Rad17-Gal4-DNA-binding-domain and Rad17-Gal4-transcriptional-activation-domain fusions (“bait” and “prey” plasmids). Enhanced protein-protein interaction is visualized by activation of a Gal4responsive chromosomal reporter gene construct required for histidine synthesis (HIS3) (FIG. 1).
These cells are exposed to a DNA-damaging agent in form of a gradient on a histidine-omission plate. […] It should also be mentioned that the use of a blue color marker (LacZ gene) is possible. It is not unusual that the context of a promoter affects the specific interaction and may be easily addressed by switching to one of a wide variety or readily available commercial and non-commercial expression systems.
[pCAD1-Rad17/pGBT9-Rad17], respectively. […] Responses in a wild-type reporter strain (WT, left two plates) and a mutant deleted for topoisomerase I (top1δ, right) are compared. Cells of the reporter strain (CG1945), previously co-transformed with Rad17 bait/prey Gal4-fusions (pCAD1-Rad17/pGBT9-Rad17) were plated as indicated. The genotoxic agent CPT or DMSO (solvent control) was applied on a filter paper.
Using manual replicating on large petri dishes, these were transferred to -His plates that had been inoculated with cells of a reporter strain, co-transformed with Rad17 bait/prey plasmids as described.
DIPI assay was performed in a high-throughput mode. The Petri dish assay was adapted to the 96 well plate format in order to use conventional high-throughput machinery. Two protocols were explored (FIG. 4). In both cases, the selective agar medium lacking leucine, tryptophan and histidine was poured in the plate wells. In protocol 1, cell suspension was pipeted on top of the plate and, after drying, a sample of CPT. In protocol 2, cells were mixed with agar and pipeted, resulting in a cell-containing agar layer. CPT was added on top. After 3-4 days, the plates were evaluated for colony growth.
All cells will be exposed to a CPT concentration that leads to some low amount of colony formation on selective medium. Briefly, the haploid two-hybrid reporter strain CG1945 (4) is co-transformed with plasmids pGBT9Rad17 and pCAD1-Rad17. […] The selected co-transformant is grown up to stationary phase in yeast synthetic medium (SM) without tryptophan and leucine to retain both plasmids. Incubation period is typically two days at 30° C. with shaking. The standard recipe for yeast SM calls for 2% dextrose, 0.67% yeast nitrogen base with ammonium sulfate/without amino acids (e.g. from US Biological) and a -Trp-Leu amino acid dropout mix (Qbiogene, Inc.).

SMILES: CC[C@@]1(OC(=O)CN)C(=O)OCc2c1cc1n(c2=O)Cc2cc3ccccc3nc2-1.Cl [NSC606985, glycine 4-ethyl-3,4,12,14-tetrahydro-3,14-dioxo-1H-pyrano[3′, 4′:6,7]indolizino[1,2-b]quinolin-4-yl ester, (S)-monohydrochloride]
- Rad17 self-interaction response in DIPI assay (colony growth on -His medium): increasing Rad17 self-interaction

SMILES: CC[C@@]1(O)C(=O)OCc2c1cc1n(c2=O)Cc2cc3ccccc3nc2-1 [camptothecin]
- number of colonies in DIPI assay, 96 well plate format (96 well plate, after 3-4 days, compared to control (DMSO), listed as CPT): number of colonies increased significantly; also recorded: number of colonies is increased
- Rad17 homomeric interaction response in DIPI assay (top1δ background (topoisomerase I deleted)): absence of increased homomeric Rad17 interaction
- Rad17 self-interaction response in DIPI assay (colony growth on -His medium): very responsive; also recorded: increasing Rad17 self-interaction
- Rad17 self-interaction response in DIPI assay (colony growth on -His medium) (listed as CPT): positive CPT response
